Measured values taken from patent EP1803452A1, “ESTER DERIVATIVE AND PHARMACEUTICAL USE THEREOF” (Japan Tobacco, Inc., priority 2004, dated 2006).

Legend:
[1] = Metabolic stability test in liver S9; assay type: in vitro ADME; details: pH 7.4, human liver S9 2 mg protein/mL, LC/MS; for remaining at 10 min: unchanged form after 10 minutes at 37°C, read-out: Remaining rate in human liver S9 (%/10min); for remaining at 1 h: unchanged form after 60 minutes at 37°C, read-out: Remaining rate in human liver S9 (%/60min)
In short: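 Compound from DMSO solution was incubated at 37°C with human liver S9 (final 2 mg protein/mL) in 100 mM potassium phosphate pH 7.4 with an NADPH-regenerating system for 0, 10 and 60 minutes. Reactions were stopped with acetonitrile/0.1% formic acid. Unchanged compound was measured by LC/MS as remaining rate (%) relative to zero time.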

[2] = Stability test in buffer (pH 7.4); assay type: physicochemical; details: phosphate buffer/acetonitrile 7:3, 100 mM potassium phosphate buffer (pH 7.4) and acetonitrile 7:3 (v/v), LC/MS; for remaining at 10 min: 10 minutes at 37°C, read-out: Buf. remaining rate (%/10min); for remaining at 1 h: 60 minutes at 37°C, read-out: Buf. remaining rate (%/60min)
In short: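 Compound from DMSO solution incubated at 37°C in 100 mM potassium phosphate buffer/acetonitrile 7:3 (v/v) for 0, 10 and 60 min, then quenched with acetonitrile containing formic acid (final 0.1%). Unchanged compound in supernatant quantified by LC/MS; remaining rate (%) = amount at each time / amount at zero time × 100.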

[3] = Metabolic stability test in plasma; assay type: in vitro ADME, human; details: LC/MS; for remaining at 10 min: unchanged form after 10 minutes at 37°C in human plasma, read-out: Remaining rate in human plasma (%/10min); for remaining at 1 h: unchanged form after 60 minutes at 37°C in human plasma, read-out: Remaining rate in human plasma (%/60min)
In short: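 Compound in DMSO spiked into human, mouse or hamster plasma, incubated at 37°C for 0, 10 and 60 minutes, then quenched with acetonitrile/formic acid (final 0.1%). Unchanged compound in supernatant quantified by LC/MS; remaining rate (%) relative to time zero.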

SMILES	remaining at 10 min [1]	remaining at 1 h [1]	remaining at 10 min [2]	remaining at 1 h [2]	remaining at 10 min [3]	remaining at 1 h [3]
CCCOC(=O)c1ccc(OC(=O)CCCc2ccc(NC(=O)c3ccccc3-c3ccc(C(F)(F)F)cc3)c(C(=O)N(C)C)c2)cc1 [Compound 1-8, 4-(4-{3-dimethylcarbamoyl-4-[(4'-trifluoromethylbiphenyl-2-carbonyl)amino]phenyl}butyryloxy) benzoic acid propyl ester]	0%	0%	99%	98%	71%	12%
CCOC(=O)c1ccc(OC(=O)CCCc2ccc(NC(=O)c3ccccc3-c3ccc(C(F)(F)F)cc3)c(C(=O)N3CCCC3)c2)c(F)c1 [Compound 1-16, 3-fluoro-4-(4-{3-(pyrrolidine-1-carbonyl)-4-[(4'-trifluoromethylbiphenyl-2-carbonyl)amino]phenyl)butyryloxy)benzoic acid ethyl ester]	2%	0%	98%	103%	3%	0%
CN(C)C(=O)c1cc(CCCC(=O)Oc2ccc(C(=O)OCc3ccncc3)cc2)ccc1NC(=O)c1ccccc1-c1ccc(C(F)(F)F)cc1 [Compound 1-84, 4-[4-(3-dimethylcarbamoyl-4-{(4'-trifluoromethylbiphenyl-2-carbonyl)amino}phenyl)butyryloxy]benzoic acid pyridin-4-ylmethyl ester]	1%	0%	99%	101%	21%	0%
COC(=O)c1ccc(OC(=O)CCCc2ccc(NC(=O)c3ccccc3-c3ccc(C(F)(F)F)cc3)c(C(=O)N3CCOCC3)c2)cc1 [Compound 1-26, 4-(4-{3-(morpholine-4-carbonyl)-4-[(4'-trifluoromethylbiphenyl-2-carbonyl)amino]phenyl}butyryloxy)benzoic acid methyl ester]	0%	0%	99%	102%	23%	0%
COC(=O)c1ccc(OC(=O)CCCc2ccc(NC(=O)c3ccc(C)nc3-c3ccc(C(F)(F)F)cc3)c(C(=O)N(C)C)c2)cn1 [Compound 1-32, 5-[4-(3-dimethylcarbamoyl-4-{[6-methyl-2-(4-trifluoromethylphenyl)pyridine-3-carbonyl]amino}phenyl)butyryloxy]pyridine-2-carboxylic acid methyl ester]	0%	0%	100%	97%	0%	0%
COC(=O)c1ccc(OC(=O)CCc2ccc(NC(=O)c3ccccc3-c3ccc(C(F)(F)F)cc3)c(C(=O)N(C)C)c2)cc1 [Compound 1-27, 4-(3-{3-dimethylcarbamoyl-4-[(4'-trifluoromethylbiphenyl-2-carbonyl)amino]phenyl}propionyloxy)benzoic acid methyl ester]	0%	0%	97%	102%	10%	0%
CCOC(=O)c1cc(C)c(OC(=O)CCCc2ccc(NC(=O)c3ccc(C)nc3-c3ccc(C(F)(F)F)cc3)c(C(=O)N(C)C)c2)c(C(=O)OC)c1 [Compound 1-52, 4-[4-(3-dimethylcarbamoyl-4-{[6-methyl-2-(4-trifluoromethylphenyl)pyridine-3-carbonyl]amino}phenyl)butyryloxy]-5-methylisophthalic acid 1-ethyl ester 3-methyl ester]	13%	4%	100%	101%	12%	0%
CN(C)C(=O)c1cc(CCCC(=O)Oc2ccc(C(=O)OCc3ccc(Cl)cc3)cc2)ccc1NC(=O)c1ccccc1-c1ccc(C(F)(F)F)cc1 [Compound 1-79, 4-[4-(3-dimethylcarbamoyl-4-{(4'-trifluoromethylbiphenyl-2-carbonyl)amino}phenyl)butyryloxy]benzoic acid 4-chlorobenzyl ester]	20%	4%	96%	95%	0%	0%
COC(=O)c1ccc(OC(=O)CCCc2ccc(NC(=O)c3ccccc3-c3ccc(C(F)(F)F)cc3)c(C(=O)N(C)C)c2)cc1C(F)(F)F [Compound 1-21, 4-(4-{3-dimethylcarbamoyl-4-[(4'-trifluoromethylbiphenyl-2-carbonyl)amino]phenyl}butyryloxy)-2-trifluoromethylbenzoic acid methyl ester]	0%	0%	104%	103%	0%	0%
CN(C)C(=O)c1cc(CCCC(=O)Oc2ccc(C(=O)OCc3ccsc3)cc2)ccc1NC(=O)c1ccccc1-c1ccc(C(F)(F)F)cc1 [Compound 1-99, 4-[4-(3-dimethylcarbamoyl-4-{(4'-trifluoromethylbiphenyl-2-carbonyl)amino}phenyl)butyryloxy]benzoic acid thiophen-3-ylmethyl ester]	6%	0%	98%	99%	5%	0%
COC(=O)c1cc(C)c(OC(=O)CCCc2ccc(NC(=O)c3ccccc3-c3ccc(C(F)(F)F)cc3)c(C(=O)N(C)C)c2)c(C)c1 [Compound 1-64, 4-[4-(3-dimethylcarbamoyl-4-{(4'-trifluoromethylbiphenyl-2-carbonyl)amino}phenyl)butyryloxy]-3,5-dimethylbenzoic acid methyl ester]	21%	4%	100%	101%	98%	93%
CCOC(=O)c1cc(C)c(OC(=O)CCCc2ccc(NC(=O)c3ccc(C)nc3-c3ccc(C(F)(F)F)cc3)c(C(=O)N(C)C)c2)c(Cl)c1 [Compound 1-112, 3-chloro-4-[4-(3-dimethylcarbamoyl-4-{[6-methyl-2-(4-trifluoromethylphenyl)pyridine-3-carbonyl]amino}phenyl)butyryloxy]-5-methylbenzoic acid ethyl ester]	27%	8%	99%	100%	48%	0%
COC(=O)c1ccc(OC(=O)CCCc2ccc(NC(=O)c3ccccc3-c3ccc(C(F)(F)F)cc3)c(C(=O)N(C)C)c2)cc1OC [Compound 1-17, 4-(4-{3-dimethylcarbamoyl-4-[(4'-trifluoromethylbiphenyl-2-carbonyl)amino]phenyl}butyryloxy) -2-methoxybenzoic acid methyl ester]	0%	0%	100%	105%	0%	0%
CCc1cc(C(=O)OC)cc(Cl)c1OC(=O)CCCc1ccc(NC(=O)c2ccc(C)nc2-c2ccc(C(F)(F)F)cc2)c(C(=O)N(C)C)c1 [Compound 1-73, 3-chloro-4-[4-(3-dimethylcarbamoyl-4-{[6-methyl-2-(4-trifluoromethylphenyl)pyridine-3-carbonyl]amino}phenyl)butyryloxy]-5-ethylbenzoic acid methyl ester]	10%	0%	101%	101%	78%	19%
CC(C)n1nnc(-c2ccc(OC(=O)CCCc3ccc(NC(=O)c4ccccc4-c4ccc(C(F)(F)F)cc4)c(C(=O)N(C)C)c3)cc2)n1 [Compound 1-115, 4-(3-dimethylcarbamoyl-4-{(4'-trifluoromethylbiphenyl-2-carbonyl)amino}phenyl)butyric acid 4-(2-isopropyl-2H-tetrazol-5-yl)phenyl ester]	0%	0%	98%	98%	85%	40%
CCOc1cc(C(=O)OC)cc(OC)c1OC(=O)CCCc1ccc(NC(=O)c2ccc(C)nc2-c2ccc(C(F)(F)F)cc2)c(C(=O)N(C)C)c1 [Compound 1-49, 4-[4-(3-dimethylcarbamoyl-4-{[6-methyl-2-(4-trifluoromethylphenyl)pyridine-3-carbonyl]amino}phenyl)butyryloxy]-3-ethoxy-5-methoxybenzoic acid methyl ester]	6%	1%	100%	100%	0%	0%
